Legend:
Assay in all cases: relative viability (nuclei count vs DMSO), 5 days (fraction); higher = more cells survive
Carboplatin + AZD7762 = compound: C1CC(C1)(C(=O)O)C(=O)O.[NH2-].[NH2-].[Pt+2] [Carboplatin] + NC(=O)Nc1cc(-c2cccc(F)c2)sc1C(=O)N[C@H]1CCCNC1 [AZD7762] (partner 0.2 µM)
How it was run: (§1)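 Nuclei were stained with Hoechst during a one-step fixation (final 0.05% Triton X-100, 1% formaldehyde, 1 ug/ml Hoechst) carried out 5 days after dosing, then counted on 4× images. The cells, lung cancer lines in 1536-well plates, had been dosed by pin tool the day after seeding with one drug alone or a fixed anchor-drug dose plus five library-drug doses (not always all listed) in √10 steps. Relative viability is the nuclei count in treated wells divided by that in vehicle wells, and each value is the median of duplicate plates.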

Carboplatin + Pemetrexed = compound: C1CC(C1)(C(=O)O)C(=O)O.[NH2-].[NH2-].[Pt+2] [Carboplatin] + Nc1nc2[nH]cc(CCc3ccc(C(=O)N[C@@H](CCC(=O)O)C(=O)O)cc3)c2c(=O)[nH]1 [Pemetrexed] (partner 0.2 µM)
How it was run: as §1

Carboplatin + Decitabine = compound: C1CC(C1)(C(=O)O)C(=O)O.[NH2-].[NH2-].[Pt+2] [Carboplatin] + Nc1ncn([C@H]2C[C@H](O)[C@@H](CO)O2)c(=O)n1 [Decitabine] (partner 2 µM)
How it was run: as §1

MLN4924 + Trametinib = compound: NS(=O)(=O)OC[C@@H]1C[C@@H](n2ccc3c(N[C@H]4CCc5ccccc54)ncnc32)C[C@@H]1O [MLN4924] + CC(=O)Nc1cccc(-n2c(=O)n(C3CC3)c(=O)c3c(Nc4ccc(I)cc4F)n(C)c(=O)c(C)c32)c1 [Trametinib] (partner 0.02 µM)
How it was run: as §1

Cell Line	relative viability (Carboplatin + AZD7762; first compound 0.08 µM)	relative viability (Carboplatin + AZD7762; first compound 0.253 µM)	relative viability (Carboplatin + AZD7762; first compound 0.8 µM)	relative viability (Carboplatin + AZD7762; first compound 2.53 µM)	relative viability (Carboplatin + AZD7762; first compound 8 µM)	relative viability (Carboplatin + Pemetrexed; first compound 0.08 µM)	relative viability (Carboplatin + Pemetrexed; first compound 0.253 µM)	relative viability (Carboplatin + Pemetrexed; first compound 0.8 µM)	relative viability (Carboplatin + Pemetrexed; first compound 2.53 µM)	relative viability (Carboplatin + Pemetrexed; first compound 8 µM)	relative viability (Carboplatin + Decitabine; first compound 0.08 µM)	relative viability (Carboplatin + Decitabine; first compound 0.253 µM)	relative viability (Carboplatin + Decitabine; first compound 0.8 µM)	relative viability (Carboplatin + Decitabine; first compound 2.53 µM)	relative viability (Carboplatin + Decitabine; first compound 8 µM)	relative viability (MLN4924 + Trametinib; first compound 0.04 µM)	relative viability (MLN4924 + Trametinib; first compound 0.1265 µM)	relative viability (MLN4924 + Trametinib; first compound 0.4 µM)	relative viability (MLN4924 + Trametinib; first compound 1.265 µM)	relative viability (MLN4924 + Trametinib; first compound 4 µM)
201T	0.643	0.608	0.612	0.482	0.423	0.362	0.343	0.344	0.36	0.327	0.869	0.822	0.865	0.791	0.76	0.786	0.676	0.523	0.3	0.322
A549	–	–	–	–	–	–	–	–	–	–	0.259	0.338	0.279	0.231	0.18	–	–	–	–	–
A-427	0.75	0.759	0.778	0.762	0.795	1.03	1.01	0.942	0.897	1.05	0.593	0.562	0.571	0.527	0.512	0.612	0.477	0.334	0.271	0.263
ABC-1	–	0.674	0.91	0.77	0.66	–	–	–	–	–	1.02	1.12	1.01	0.931	0.52	–	–	–	–	–
BEN	0.912	0.792	0.725	0.723	0.818	1.02	0.931	0.772	0.759	0.738	0.87	0.714	0.691	0.634	0.599	1	0.733	0.548	0.372	0.287
CAL-12T	0.848	0.579	0.674	0.555	0.548	1.21	1.34	1.13	1.12	1.14	–	–	–	–	–	0.373	0.371	0.269	0.279	0.158
COR-L23	–	–	–	–	–	0.188	0.202	0.192	0.193	0.198	0.402	0.514	0.412	0.361	0.21	0.633	0.683	0.416	0.162	0.122
COR-L 105	–	–	–	–	–	1.13	1.27	1.18	0.854	0.615	0.648	0.611	0.687	0.515	0.398	0.433	0.417	0.422	0.3	0.339
ChaGo-K-1	0.935	0.866	0.891	0.817	0.639	0.262	0.261	0.253	0.249	0.269	0.563	0.527	0.464	0.413	0.388	0.763	0.411	0.392	0.186	0.174
EKVX	0.743	0.757	0.737	0.739	0.537	0.38	0.342	0.402	0.296	0.329	0.4	0.331	0.389	0.307	0.283	0.314	0.349	0.319	0.244	0.193
EMC-BAC-2	1.15	0.993	1.11	1.07	0.973	0.426	0.42	0.435	0.418	0.414	1.01	0.944	0.999	0.922	0.716	0.762	0.589	0.466	0.324	0.35
EPLC-272H	0.308	0.218	0.309	0.208	0.208	0.368	0.309	0.359	0.301	0.326	0.402	0.403	0.361	0.366	0.355	0.339	0.333	0.0863	0.147	0.126
H3255	1.08	0.917	0.852	0.832	0.734	0.589	0.531	0.58	0.529	0.563	0.775	0.504	0.687	0.622	0.421	0.591	0.53	0.409	0.304	0.306
HARA	0.279	0.344	0.265	0.279	0.383	0.232	0.201	0.241	0.247	0.246	0.681	0.439	0.549	0.448	0.469	0.671	0.79	0.357	0.114	0.111
HCC-15	1.17	1.22	1.16	1.33	0.644	0.228	0.228	0.216	0.232	0.22	0.657	0.627	0.588	0.587	0.452	0.362	0.279	0.191	0.105	0.106
HCC-44	1.06	1.03	1.02	1.01	0.992	0.637	0.684	0.569	0.535	0.606	0.968	0.915	0.949	0.923	0.863	0.962	0.844	0.814	0.447	0.368
HCC-78	0.744	0.712	0.656	0.693	0.644	0.898	0.905	0.893	0.883	0.854	0.659	0.61	0.709	0.656	0.73	0.798	0.509	1.13	0.268	0.243
HCC-366	0.442	0.256	0.155	0.126	0.0971	0.156	0.153	0.164	0.18	0.145	0.322	0.32	0.336	0.251	0.203	0.369	0.376	0.514	0.305	0.0404
HCC-827	0.245	0.204	0.213	0.182	0.223	0.253	0.244	0.259	0.234	0.245	0.354	0.321	0.248	0.19	0.304	0.738	0.601	0.526	0.193	0.156

Cell Line	relative viability (Carboplatin + AZD7762; first compound 0.08 µM)	relative viability (Carboplatin + AZD7762; first compound 0.253 µM)	relative viability (Carboplatin + AZD7762; first compound 0.8 µM)	relative viability (Carboplatin + AZD7762; first compound 2.53 µM)	relative viability (Carboplatin + AZD7762; first compound 8 µM)	relative viability (Carboplatin + Pemetrexed; first compound 0.08 µM)	relative viability (Carboplatin + Pemetrexed; first compound 0.253 µM)	relative viability (Carboplatin + Pemetrexed; first compound 0.8 µM)	relative viability (Carboplatin + Pemetrexed; first compound 2.53 µM)	relative viability (Carboplatin + Pemetrexed; first compound 8 µM)	relative viability (Carboplatin + Decitabine; first compound 0.08 µM)	relative viability (Carboplatin + Decitabine; first compound 0.253 µM)	relative viability (Carboplatin + Decitabine; first compound 0.8 µM)	relative viability (Carboplatin + Decitabine; first compound 2.53 µM)	relative viability (Carboplatin + Decitabine; first compound 8 µM)	relative viability (MLN4924 + Trametinib; first compound 0.04 µM)	relative viability (MLN4924 + Trametinib; first compound 0.1265 µM)	relative viability (MLN4924 + Trametinib; first compound 0.4 µM)	relative viability (MLN4924 + Trametinib; first compound 1.265 µM)	relative viability (MLN4924 + Trametinib; first compound 4 µM)
HOP-62	0.793	0.665	0.669	0.608	0.497	0.416	0.328	0.332	0.328	0.308	0.234	0.223	0.243	0.195	0.214	0.432	0.567	0.369	0.103	0.0823
LC-2-ad	0.922	0.829	0.854	0.851	0.78	0.278	0.28	0.294	0.308	0.272	0.753	0.93	0.708	0.776	0.64	0.95	0.827	0.701	0.541	0.305
LCLC-97TM1	0.221	0.336	0.367	0.163	0.228	0.171	0.164	0.155	0.161	0.175	0.299	0.206	0.208	0.218	0.191	0.208	0.214	0.157	0.0691	0.0607
LCLC-103H	0.853	0.763	0.802	0.806	0.806	0.448	0.479	0.468	0.517	0.474	0.801	0.735	0.747	0.719	0.735	0.697	0.651	0.513	0.331	0.307
LK-2	0.712	0.582	0.341	0.412	0.497	0.336	0.314	0.273	0.233	0.289	0.287	0.33	0.279	0.289	0.335	0.699	0.677	0.618	0.245	0.212
LOU-NH91	0.824	0.761	0.751	0.764	0.773	0.348	0.378	0.372	0.381	0.378	0.873	0.832	0.806	0.792	0.77	0.775	0.853	0.731	0.575	0.525
LU99A	0.425	0.405	0.349	0.243	0.196	0.174	0.157	0.188	0.18	0.16	0.862	0.869	0.864	0.731	0.724	0.493	0.342	0.291	0.172	0.146
NCI-H520	–	–	–	–	–	0.701	0.791	0.686	0.617	0.493	0.551	0.545	0.449	0.457	0.438	0.527	0.396	0.346	0.149	0.168
NCI-H661	–	–	–	–	–	0.942	0.858	0.903	0.916	0.839	0.526	0.577	0.534	0.521	0.526	0.714	0.712	0.475	0.277	0.353
NCI-H727	0.579	0.461	0.628	0.685	0.639	–	–	–	–	–	1.12	0.956	0.882	0.935	0.861	0.442	0.454	0.403	0.358	0.365
NCI-H1563	–	–	–	–	–	0.941	0.751	0.73	0.755	0.791	–	–	–	–	–	–	–	–	–	–
NCI-H1650	–	–	–	–	–	0.459	0.46	0.302	0.32	0.318	0.426	0.498	0.425	0.365	0.308	0.597	0.32	0.232	0.131	0.156
NCI-H1703	0.144	0.13	0.101	–	0.122	–	–	–	–	–	–	–	–	–	–	–	–	–	–	–
NCI-H2009	–	–	–	–	–	1.04	0.983	1	0.958	0.654	0.352	0.379	0.345	0.364	0.357	0.342	0.322	0.238	0.136	0.105
NCI-H2023	–	–	–	–	–	0.248	0.209	0.196	0.15	0.152	0.238	0.224	0.185	0.141	0.129	0.549	0.495	0.328	0.0604	0.0809
NCI-H2228	–	–	–	–	–	0.397	0.338	0.311	0.376	0.313	–	–	–	–	–	0.537	0.496	0.255	0.168	0.125
SK-LU-1	–	–	–	–	–	1.11	0.937	0.958	0.899	0.676	0.719	0.677	0.625	0.586	0.46	0.556	0.652	0.347	0.269	0.234
SK-MES-1	–	–	–	–	–	1.04	0.928	0.92	0.972	0.843	0.419	0.415	0.345	0.341	0.341	0.631	0.676	0.727	0.295	0.255
SW 1573	–	–	–	–	–	0.92	0.924	1.18	1.01	0.569	0.493	0.524	0.587	0.4	0.26	0.586	0.441	0.14	0.0868	0.0758
